Results published in publication PMC8949075, “Evaluation of Two Novel Hydantoin Derivatives Using Reconstructed Human Skin Model Episkin^TM: Perspectives for Application as Potential Sunscreen Agents” (Molecules, 2022).
Blank lines part the entries; values can stand above or below the compound they belong to.

Experiments:
[1] = CHO-K1 cytotoxicity assay (MTT); assay type: cell-based; conditions: Chinese hamster, CHO-K1 cells, concentrations ranging from 1 to 10 µM
Method: The Chinese hamster ovary CHO-K1 cell line was obtained from the American Type Culture Collection (ATCC CCL-61). The CHO-K1 cell line was cultured in a humidified incubator at 37 °C with 5% CO2, in F-12K Medium (Kaighn’s Modification of Ham’s F-12 Medium) (ATCC) supplemented with 10% fetal bovine serum (FBS; Gibco, Waltham, MA, USA) and antibiotics (1% streptomycin/penicillin salts mixture, Sigma–Aldrich, Darmstadt, Germany).
The cells were seeded at a density of 6 × 10^3 on 96-well plates. […] Test compounds and 4MBC were dissolved in DMSO (solvent, final concentration 0.1%) and ethanol (co-solvent, final concentration 1%). At the end of the incubation period, 10 µL of MTT reagent was added to each well. After 4 h incubation (37 °C, 5% CO2), the medium was discarded, and the formazan produced in the cells appeared as dark crystals in the bottom of the wells. Next, pure DMSO was added to each well. The optical density data of converted dye was measured at 570 nm (A570) on microplate reader. […] The experiment was conducted two times with three repetitions for each condition.

[2] = set-up: method as in PMID 26674115; conditions: cited from earlier work
CHO-K1 cells = assay: In vitro micronucleus assay; assay type: cell-based, Chinese hamster
Method: The CHO-K1 cells were seeded in 6-well plates at a density of 1 × 10^6 cells/well and incubated overnight at 37 °C, 5% CO2 atmosphere. […] The test compounds and 4MBC were dissolved in DMSO (solvent, final concentration 0.1%) and ethanol (co-solvent, final concentration 1%). After 24 h of treatment, the medium was removed, and the cells were rinsed with PBS. Then, fresh medium containing cytochalasin B (CytB; Sigma Aldrich, Darmstadt, Germany) (4.5 µg/mL) was added and incubation was continued for the next 24 h.
After the incubation period, the cells were washed with fresh medium, detached by trypsinization, and centrifuged. The supernatant was discarded and 5 mL of 1% ice-cold sodium citrate (Chempur, Piekary Śląskie, Poland) was added to the cell pellet, which was then gently resuspended. After 15 s, 5 mL of freshly prepared fixative solution (methanol/acetic acid, 3:1) and 4 drops of formaldehyde were added. The cell suspension was centrifuged (5 min, 1000 rpm), the supernatant was discarded again, and the pellet was fixed in fixative mixture two more times, without formaldehyde. After the third fixation, part of the supernatant was removed, and around 1 mL of the supernatant was retained to resuspend the cells. The suspension was then dripped onto clean, previously frozen, glass slides to dry. After air-drying, the slides were stained with Giemsa dye (1:20 in phosphate buffer) for 5 min [56, 78, 79].
One thousand binucleated cells per slide with intact nuclei of equal size, similar pattern of cytoplasm staining, intact membrane, and distinguishable from adjacent cells, without apoptotic and necrotic cells were analyzed. Only the micronuclei with the same morphology and color of the main nuclei, with 1/16 to 1/3 of the major nucleus diameter, unrefringent and not overlapping or connected to the main nuclei were counted. Moreover, the presence of dicentric bridges (DB) and nuclear buds (NB) in the binucleated cells was analyzed. The nuclear division index (NDI) was calculated using the following formula: [(1 × MOC) + (2 × BC) + (3 × MUC)]/N, where MOC is the number of mononuclear cells, BC is the number of binuclear cells, MUC represents the number of multinuclear cells, and N is the total number of scored cells. The micronucleus incidence was presented as a number of micronuclei per 1000 examined binuclear cells. The experiment was conducted two times with three repetitions for each condition.

[3] = cited from earlier work
[4] = test system: Episkin^TM reconstructed human epidermis; assay: Episkin skin permeation test (finite dose, OECD 428); assay type: in vitro ADME; conditions: 2% formulation; for absorbed amount detected in the RF (of the applied dose): 24 h exposure, 10 mg/cm^2 finite dose; for detection in the receptor fluid over time: sampling 0-6 and 24 h; for detection in the receptor fluid over time / absorption rate (amount in receptor fluid): 10 mg/cm^2; for absorption rate (amount in receptor fluid): after 24 h
Method: (§1) The MM was provided by the manufacturer.
(§2) The receptor fluid composition was based on the pilot experiments.
(§3) The formulations of the test compounds (JH3 and JH10) and commercial UV filters were applied onto the skin surface in the donor compartment in a net dose of 10 mg/cm^2 (finite dose application) using disposable flexible loops. To quantify the dose of the formulation applied on the top of the Episkin^TM model, the loops were weighed, filled with approximately 11 mg of formulation, and then reweighed. The difference in weight was used as the amount of formulation applied. Commercial UV filters such as BP3, 4MBC, and AVO were used as reference standards. The filters were obtained from Sigma-Aldrich, Darmstadt, Germany.
(§4) The plate with tissues was embedded with parafilm and incubated at specific time points at 32 °C. As the passive diffusion of chemicals (and therefore their skin absorption) is affected by temperature, the diffusion chamber and skin were maintained at a constant temperature close to normal skin temperature of 32 ± 1 °C [19, 23, 30, 32]. At fixed time points (0, 1, 2, 3, 4, 5, 6, and 24 h), aliquots of the receptor fluid (0.5 mL) were collected from the receptor compartment and immediately replaced with fresh fluid. After 24 h the entire receptor fluid was collected, and the skin surface was washed thoroughly with cotton buds impregnated in methanol (5 times). The tissues were removed from the inserts and both the donor and receptor compartments were washed separately with methanol. The samples were stored at −20 °C until chemical analysis.
(§5) All samples were spiked with 25 µL of pentoxifylline (PTX, Sigma-Aldrich, Darmstadt, Germany) (final concentration of 20 µM) used as an internal standard prior to extraction. The samples were analyzed using ultra high-pressure liquid chromatography coupled with mass spectrometry (UHPLC/MS; Waters Corporation, Milford, MA, USA). Quantification was based on peak area and calculated from standard calibration curves of the compound adjusted by the internal standard area. The assay was in agreement with the Organization for Economic Co-operation and Development (OECD) guideline 428 [19].

[5] = as above; assay type: in vitro ADME, human; conditions: human; 24 h exposure, 10 mg/cm^2 finite dose, 2% formulation; read-out: recovery in the epidermis (of the applied dose)
Method: as §1, §2, §3, §4, §5

[6] = set-up: method as in earlier work; conditions: cited from earlier work
[7] = Episkin phototoxicity test (UVA 50 J/cm^2; MTT viability, Il-1α release); assay type: cell-based, human; conditions: human; 0.5 mM, UVA 50 J/cm^2; read-out: tissue viability after UVA exposure compared to non-irradiated epidermis
Method: as §1
Compounds JH3 and JH10 (final concentrations of 0.5 and 1 mM) solubilized in ethanol (final concentration of 1% in water) were applied topically on the tissue surface. Chlorpromazine (CPZ, chlorpromazine hydrochloride, C17H19ClN2S·HCl, CAS number: 69-09-0, molecular weight: […], purity: meets USP testing specifications, Sigma-Aldrich, Darmstadt, Germany) (final concentration of 0.5 mM, based on literature data) was used as a positive control, whereas solvent alone served as a negative control.
Duplicate plates were prepared for UVA and dark (controls) exposure purposes. After the treatment period of 2 h, the excess test compound was removed from each well, and the tissues were exposed to UVA at a non-cytotoxic dose of 50 J/cm^2 ([…] at 250 W/m^2) with a solar light simulator equipped with a window glass filter and ID65 filter (Suntest CPS+, Atlas, Linsengericht, Germany). The emitted spectrum contained both UV and visible outputs with a UV cut-on of approx. 320 nm and corresponded to ID65 per ISO 10,977 [74]. The irradiance level between 320 and 400 nm was approximated by the following equation: W/m^2 (320–400 nm) = W/m^2 (300–800 nm) ÷ 11.5. In parallel, the non-irradiated treated tissues were placed in the dark under the same conditions. […] Next, cell viability was assessed using an MTT conversion test and the culture media aliquots were kept frozen (−20 °C) for Il-1α measurement (see 2.3.2. The Episkin^TM skin irritation test method section).

[8] = test system: Episkin^TM reconstructed human epidermis; assay: Episkin skin irritation test (MTT viability, Il-1α release; OECD 439); conditions: 26 mg/cm^2 topical, 15 min exposure, 42 h post-incubation
Excerpt: The Episkin^TM model (aged 13 days, large/1.07 cm^2 surface area) was provided by Episkin (Lyon, France). The Episkin^TM kit consists of 12 reconstructed epidermis units made of type I collagen matrix, representing the dermis, surfaced with a film of type IV collagen, upon which is laid a stratified and differentiated epidermis derived from human keratinocytes [17]. Upon receipt of the tissues, the culture inserts were removed from the agarose-nutrient solution and transferred into 12-well plates containing 2 mL of the maintenance medium (MM) per well. The MM was provided by the manufacturer. Tissues were then incubated for 24 h at 37 °C in a humidified atmosphere of 5% CO2 before use in the permeation, irritation, or phototoxicity experiments.
Prior to the irritation experiments, the Episkin^TM inserts were washed with sterile PBS to remove traces of the MM and transferred into new 12-well plates containing 2 mL of fresh MM. […] Sodium dodecyl sulphate (SDS; Sigma-Aldrich, Darmstadt, Germany) (5% in water) and PBS were used as positive and negative controls, respectively. Both controls were applied topically (26 mg/cm^2). Samples were tested in two independent experiments using three tissues for each chemical, positive, or negative control.
Then, the tissues were placed in new 12-well plates containing 2 mL of the MM per well and incubated for an additional 42 h at 37 °C in a humidified atmosphere of 5% CO2 as post-treatment incubation time. At the end of this period, the culture media of each tissue were collected and stored at −20 °C for Il-1α measurement.
The cell viability was assessed by a subsequent incubation of the tissues for 3 h with freshly prepared 3-(4,5-dimethylthiazol-2-yl)-2,5-diphenyltetrazolium bromide (MTT; Sigma-Aldrich, Darmstadt, Germany) solution (0.3 mg/mL in assay medium (AM)) in a 12-well plate. Then, a biopsy of the epidermis was done using a puncher (Episkin, Lyon, France), and the precipitated formazan was extracted using 500 µL of acidified isopropanol (Chempur, Piekary Śląskie, Poland) (0.04 N HCl in isopropanol) for 48 h (4 °C). At the end of the extraction period, 200 µL of each sample were transferred to 96-well plates for absorbance measurements at 570 nm (A570) [70, 71, 72, 73]. […] Viability (percent of control) was determined by dividing A570 of experimental wells by A570 of control wells × 100%. The test substance was considered as an irritant when mean tissue viability was equal or less than 50% [16, 17].
Il-1α measurement was conducted by a classic enzyme-linked immunosorbent assay (ELISA) technique (Cayman Chemical, Ann Arbor, MI, USA). Firstly, 100 µL of the samples were added into a 96-well ready to use microtiter plate (precoated with a monoclonal antibody specific for Il-1α (Il-1α capture antibody). Secondly, 100 µL of an acetylcholinesterase:Fab’ Conjugate (AChE:Fab’) was added to each well. The plate was covered with plastic film and incubated overnight at 4 °C. At the end of the incubation period the contents of each well were removed and rinsed five times with wash buffer. Next, 200 µL of Ellman’s reagent (containing the substrate for AChE) was added to each well, the plate was covered with plastic film and developed in the dark using an orbital shaker. The absorbance of the wells was measured at 410 nm. Il-1α concentrations were then calculated using the standard curve.

Compound: Cc1ccc(C=C2C(=O)C3(C)CCC2C3(C)C)cc1 (stereo not drawn) [4MBC, 3-(4-methylbenzylidene) camphor, reference compound]
viability at 24 h [1]: > 75%
log P [2]: 4.95
DB (dicentric bridges) (CHO-K1 cells; Chinese hamster, 24 h, 1 µM): 4.6
MN (micronuclei) (CHO-K1 cells; Chinese hamster, 24 h, 1 µM): 8.3 ± 2.9
NB (nuclear buds) (CHO-K1 cells; Chinese hamster, 24 h, 1 µM): 3.7
NDI (nuclear division index) (CHO-K1 cells; Chinese hamster, 24 h, 1 µM): 1.35
DB (dicentric bridges) (CHO-K1 cells; Chinese hamster, 24 h, 5 µM): 4.5
MN (micronuclei) (CHO-K1 cells; Chinese hamster, 24 h, 5 µM): 9.0 ± 3.4
NB (nuclear buds) (CHO-K1 cells; Chinese hamster, 24 h, 5 µM): 3.5
NDI (nuclear division index) (CHO-K1 cells; Chinese hamster, 24 h, 5 µM): 1.30
DB (dicentric bridges) (CHO-K1 cells; Chinese hamster, 24 h, 10 µM): 3.4
MN (micronuclei) (CHO-K1 cells; Chinese hamster, 24 h, 10 µM): 7.3 ± 4.4
NB (nuclear buds) (CHO-K1 cells; Chinese hamster, 24 h, 10 µM): 4.9
NDI (nuclear division index) (CHO-K1 cells; Chinese hamster, 24 h, 10 µM): 1.39
bacterial mutation (Ames) assay result [3]: negative
absorbed amount detected in the RF (of the applied dose) [4]: 3%
detection in the receptor fluid over time [4]: detected only after 24 h exposure
recovery at 24 h, 2 % in formulation [5]: 28%
in vitro chromosomal aberration test result [6]: negative

absorbed amount detected in the RF (of the applied dose) [4]: about 1%
absorption rate (amount in receptor fluid) [4]: 3 µg/cm^2
recovery at 24 h, 2 % in formulation [5]: 16%
Compound: COc1ccc(C(=O)CC(=O)c2ccc(C(C)(C)C)cc2)cc1 [AVO, avobenzone]
log P [2]: 4.51

absorbed amount detected in the RF (of the applied dose) [4]: 12%
absorption rate (amount in receptor fluid) [4]: 20 µg/cm^2
detection in the receptor fluid over time [4]: clearly detectable after the third hour
recovery at 24 h, 2 % in formulation [5]: 18%
Compound: COc1ccc(C(=O)c2ccccc2)c(O)c1 [BP3, benzophenone-3]

Compound: CN(C)CCCN1c2ccccc2Sc2ccc(Cl)cc21 [CPZ, Chlorpromazine, reference compound]
viability at 2 h, 0.5 mM [7]: ~40%

Compound: CO[C@@]12[C@H](COC(N)=O)C3=C(C(=O)C(C)=C(N)C3=O)N1C[C@@H]1N[C@@H]12 [MMC, Mitomycin C, reference compound]
increase in the number of MNs vs normal and vehicle control (CHO-K1 cells; 0.5 µg/mL): approximately 10 fold
increase in the number of NBs vs normal and vehicle control (CHO-K1 cells; 0.5 µg/mL): 7 fold
MN (micronuclei) (CHO-K1 cells; 0.5 µg/mL (positive control), count in 1000 binucleated cells per slide): 88.5 ± 6.5

Compound: CCCCCCCCCCCCOS(=O)(=O)[O-].[Na+] [SDS, Sodium dodecyl sulphate, reference compound]
Il-1α release [8]: 96 pg/mL
mean tissue viability ([8]; vs negative control): approximately 10%
